Test results published in patent US12649723B2, “Carbonohydrazonoyl dicyanide compounds comprising 2 or more aryl or heteroaryl connected via linker and use thereof” (KOREA INSTITUTE OF SCIENCE AND TECHNOLOGY, priority 2020, dated 2026).

Columns and labels:
[1] = Liver microsome stability; format: in vitro ADME, rat; details: amount of substrate remaining; compound 1 μM, 30 minutes, 37° C., NADPH
Outline: (§1)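 Human, dog, rat and mouse liver microsomes (0.25 mg/mL) with 1 μM compound in 0.1 M phosphate buffer pH 7.4, preincubated 5 min at 37° C, then incubated 30 min at 37° C with NADPH-generating system. Reaction stopped with acetonitrile containing internal standard; remaining parent quantified by LC-MS/MS.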

CYP2C9 = molecular target: T1, CYP2C9 (Homo sapiens, UniProt P11712); experiment: Inhibitory effect on CYP coenzyme activity, human liver microsomes; format: in vitro ADME; details: compound 10 μM; human liver microsomes 0.25 mg/mL; substrate diclofenac; 15 minutes
T1 construct: human liver microsomes (0.25 mg/mL); from tissue; host or cells: human liver microsomes
Procedure: (§2) The inhibitory effects of the compounds prepared according to Examples 1 to 175 on CYP coenzyme activity were identified. Specifically, human liver microsomes (0.25 mg/mL), a 0.1 M phosphate buffer solution (pH 7.4), a substrate drug cocktail of five types of drug metabolism enzymes (50 μM phenacetin, 10 μM diclofenac, 100 μM S-mephenytoin, 5 μM dextromethorphan, and 2.5 μM midazolam), and the compound at a concentration of 0 μM or 10 μM were mixed and pre-cultured at 37° C. for 5 minutes, and then further cultured at 37° C. for 15 minutes together with an NADPH generation system solution added thereto. Thereafter, the reaction was terminated by adding an acetonitrile solution containing an internal standard material (terfenadine) and centrifuged for 5 minutes (14,000 rpm, 4° C.), and then a supernatant was injected into an LC-MS/MS system for simultaneous analysis of metabolites of the substrate drugs to thereby evaluate the inhibitory effects on drug metabolism.
(§3) Metabolites of each CYP coenzyme indicator drug generated through the reaction were analyzed using the Shimadzu Nexera XR system and TSQ Vantage (Thermo). In an HPLC column, Kinetex C18 (2.1 mm×100 mm, 2.6 μm, particle size; Phenomenex, USA) was used, and mobile phases were (A) distilled water containing 0.1% formic acid and (B) acetonitrile containing 0.1% formic acid, and a gradient program shown in Table 3 was applied thereto.
(§4) The generated metabolites were quantified using a multiple reaction monitoring (MRM) quantification mode, and Xcalibur (version 1.6.1) was used for data analysis. Inhibitory effects of the novel compound prepared according to the examples of the present invention on CYP coenzyme activity are shown in Table 4 below.

CYP2C19 = molecular target: T2, CYP2C19 (Homo sapiens, UniProt P33261); experiment: as above; format: in vitro ADME; details: compound 10 μM; human liver microsomes 0.25 mg/mL; substrate S-mephenytoin; 15 minutes
T2 construct: human liver microsomes (0.25 mg/mL); from tissue; host or cells: human liver microsomes
Procedure: as §2, §3, §4

CYP3A4 = molecular target: T3, CYP3A4 (Homo sapiens, UniProt P08684); experiment: as above; format: in vitro ADME; details: compound 10 μM; human liver microsomes 0.25 mg/mL; substrate midazolam; 15 minutes
T3 construct: human liver microsomes (0.25 mg/mL); from tissue; host or cells: human liver microsomes
Procedure: as §2, §3, §4

CYP1A2 = molecular target: T4, CYP1A2 (Homo sapiens, UniProt P05177); experiment: as above; format: in vitro ADME; details: compound 10 μM; human liver microsomes 0.25 mg/mL; substrate phenacetin; 15 minutes
T4 construct: human liver microsomes (0.25 mg/mL); from tissue; host or cells: human liver microsomes
T4 sequence (P05177 1-516): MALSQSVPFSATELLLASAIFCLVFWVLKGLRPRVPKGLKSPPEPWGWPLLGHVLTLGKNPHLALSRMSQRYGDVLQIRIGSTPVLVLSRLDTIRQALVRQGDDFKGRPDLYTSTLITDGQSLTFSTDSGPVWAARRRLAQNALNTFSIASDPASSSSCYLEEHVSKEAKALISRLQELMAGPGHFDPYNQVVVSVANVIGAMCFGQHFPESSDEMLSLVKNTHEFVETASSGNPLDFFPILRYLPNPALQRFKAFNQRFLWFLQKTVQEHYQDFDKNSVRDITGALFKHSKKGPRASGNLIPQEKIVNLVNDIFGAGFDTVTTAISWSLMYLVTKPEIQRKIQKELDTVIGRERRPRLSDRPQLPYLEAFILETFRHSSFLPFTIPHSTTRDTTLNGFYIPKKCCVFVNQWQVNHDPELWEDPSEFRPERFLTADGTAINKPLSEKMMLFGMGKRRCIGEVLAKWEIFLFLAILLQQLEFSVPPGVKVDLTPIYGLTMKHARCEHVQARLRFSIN
Procedure: as §2, §3, §4

CYP2D6 = molecular target: T5, CYP2D6 (Homo sapiens, UniProt P10635); experiment: as above; format: in vitro ADME; details: compound 10 μM; human liver microsomes 0.25 mg/mL; substrate dextromethorphan; 15 minutes
T5 construct: human liver microsomes (0.25 mg/mL); from tissue; host or cells: human liver microsomes
Procedure: as §2, §3, §4

[2] = Liver microsome stability; format: in vitro ADME, mouse; details: amount of substrate remaining; compound 1 μM, 30 minutes, 37° C., NADPH
Outline: as §1

[3] = Liver microsome stability; format: in vitro ADME, human; details: amount of substrate remaining; compound 1 μM, 30 minutes, 37° C., NADPH
Outline: as §1

[4] = Liver microsome stability; format: in vitro ADME, dog; details: amount of substrate remaining; compound 1 μM, 30 minutes, 37° C., NADPH
Procedure: The stability of liver microsomes due to the compounds prepared according to Examples 1 to 175 was confirmed. Specifically, four types of liver microsomes (human, dog, rat, and mouse, each 0.25 mg/mL), a 0.1 M phosphate buffer solution (pH 7.4), and each of the compounds at a concentration of 1 μM were mixed and pre-cultured at 37° C. for 5 minutes and further cultured at 37° C. for 30 minutes together with an NADPH generation system solution added thereto. Thereafter, the reaction was terminated by adding an acetonitrile solution containing an internal standard material (chloropropamide) and centrifuged for 5 minutes (14,000 rpm, 4° C.), and then a supernatant was injected into an LC-MS/MS system for analysis of substrate drugs to thereby evaluate metabolic stability due to 8 types of compounds.
The amount of the substrate remaining after the reaction was analyzed using the Shimadzu Nexera XR system and TSQ Vantage (Thermo). In an HPLC column, Kinetex XB-C18 (2.1 mm×100 mm, particle size of 2.6 μm; Phenomenex, USA) was used, and mobile phases were (A) distilled water containing 0.1% formic acid and (B) acetonitrile containing 0.1% formic acid. Analyst software (version 1.6.3) and Xcalibur (version 1.6.1) were used for data analysis.

Tau-BiFC cells = experiment: Cell viability (cytotoxicity) in tau-BiFC cells, count of stained nuclei; format: cell-based; details: Forskolin-only group = 100% cell viability; for Cell viability (% @10 μM): compound 10 μM; for Cell viability: compounds marked *: measured at 3 μM
Outline: (§5)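 Tau-BiFC cells were exposed for 48 h to compound (1, 3, 10 μM for screening; 0.03–30 μM for dose-response) plus 30 μM Forskolin to induce aggregation. BiFC fluorescence was normalised to Forskolin-only minus untreated controls, with IC50 from nonlinear regression. Viability was Hoechst-stained nuclei counts relative to Forskolin-only wells.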

tau protein = molecular target: T6, tau protein (Homo sapiens, UniProt P10636); experiment: Tau-BiFC cell model: inhibition of tau protein aggregation; format: cell-based; details: for remaining activity at 10 µM / remaining activity at 3 µM: 48 h, Forskolin-only group = 100% tau protein-aggregated state; for remaining activity at 10 µM: compound 10 μM, BiFC fluorescence, read-out: Response (% @10 μM); for IC50: Tau BiFC in cells, with Forskolin 30 μM, 48 hours; for remaining activity at 3 µM: compounds marked *: measured at 3 μM, read-out: Response
T6 construct: fused on or other part: Split fluorescent-protein halves for BiFC are fused to tau; In the published tau-BiFC line these are Venus VN173 and VC155
Outline: as §5

T3 sequence (P08684 whole entry): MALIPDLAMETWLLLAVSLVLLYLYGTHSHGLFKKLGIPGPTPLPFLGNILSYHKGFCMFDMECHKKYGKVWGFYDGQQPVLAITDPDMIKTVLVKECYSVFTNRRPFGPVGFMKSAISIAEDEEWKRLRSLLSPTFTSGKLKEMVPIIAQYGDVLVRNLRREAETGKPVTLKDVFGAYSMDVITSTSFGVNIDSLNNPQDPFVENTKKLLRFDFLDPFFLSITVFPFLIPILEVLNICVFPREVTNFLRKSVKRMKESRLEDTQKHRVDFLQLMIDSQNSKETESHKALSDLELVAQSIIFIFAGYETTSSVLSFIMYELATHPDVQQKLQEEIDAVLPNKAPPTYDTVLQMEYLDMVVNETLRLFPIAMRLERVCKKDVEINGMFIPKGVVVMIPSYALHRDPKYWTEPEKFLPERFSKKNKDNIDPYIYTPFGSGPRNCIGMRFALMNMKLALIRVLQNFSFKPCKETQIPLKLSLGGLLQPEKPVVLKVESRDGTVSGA
T5 sequence (P10635 whole entry): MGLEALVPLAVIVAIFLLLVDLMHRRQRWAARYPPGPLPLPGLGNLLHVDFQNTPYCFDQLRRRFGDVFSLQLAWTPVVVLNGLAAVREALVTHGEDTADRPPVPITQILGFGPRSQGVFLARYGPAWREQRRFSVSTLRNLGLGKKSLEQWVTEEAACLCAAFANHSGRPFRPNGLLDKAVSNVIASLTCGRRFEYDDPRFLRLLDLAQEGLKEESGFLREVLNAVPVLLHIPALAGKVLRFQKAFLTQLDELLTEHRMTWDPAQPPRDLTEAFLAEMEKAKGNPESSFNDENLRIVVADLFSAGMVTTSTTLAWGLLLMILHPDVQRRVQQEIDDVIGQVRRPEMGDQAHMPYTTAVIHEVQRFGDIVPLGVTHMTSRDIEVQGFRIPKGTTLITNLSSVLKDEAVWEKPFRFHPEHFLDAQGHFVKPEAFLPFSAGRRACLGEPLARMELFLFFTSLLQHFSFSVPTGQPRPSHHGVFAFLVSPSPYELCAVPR
T2 sequence (P33261 whole entry): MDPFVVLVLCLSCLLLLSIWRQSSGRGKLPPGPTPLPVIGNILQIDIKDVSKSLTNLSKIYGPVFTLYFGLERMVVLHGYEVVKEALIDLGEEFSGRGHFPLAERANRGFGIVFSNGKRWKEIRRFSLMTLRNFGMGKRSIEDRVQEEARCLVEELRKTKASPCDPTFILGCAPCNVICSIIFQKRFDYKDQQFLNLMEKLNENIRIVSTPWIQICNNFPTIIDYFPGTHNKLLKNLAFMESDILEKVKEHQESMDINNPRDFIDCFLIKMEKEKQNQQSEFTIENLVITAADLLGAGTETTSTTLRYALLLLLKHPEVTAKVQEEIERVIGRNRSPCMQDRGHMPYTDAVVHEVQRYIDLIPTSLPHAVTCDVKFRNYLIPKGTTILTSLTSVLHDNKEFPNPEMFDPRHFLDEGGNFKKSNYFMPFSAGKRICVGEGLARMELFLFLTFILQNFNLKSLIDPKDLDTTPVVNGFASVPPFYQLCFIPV
T6 sequence (P10636 2-441 isoform P10636-8 limits assumed): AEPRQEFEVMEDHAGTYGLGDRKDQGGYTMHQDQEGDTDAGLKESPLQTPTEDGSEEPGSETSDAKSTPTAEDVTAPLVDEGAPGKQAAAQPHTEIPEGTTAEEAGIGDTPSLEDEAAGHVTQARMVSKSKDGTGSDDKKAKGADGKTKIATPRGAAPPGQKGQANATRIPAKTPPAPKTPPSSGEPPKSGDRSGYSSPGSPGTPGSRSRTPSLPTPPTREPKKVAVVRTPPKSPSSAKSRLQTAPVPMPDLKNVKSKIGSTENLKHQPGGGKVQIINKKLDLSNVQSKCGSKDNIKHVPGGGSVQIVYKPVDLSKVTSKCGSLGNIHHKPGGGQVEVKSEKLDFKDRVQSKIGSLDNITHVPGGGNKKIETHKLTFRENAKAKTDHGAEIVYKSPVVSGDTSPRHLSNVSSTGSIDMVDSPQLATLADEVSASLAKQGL
T1 sequence (P11712 whole entry): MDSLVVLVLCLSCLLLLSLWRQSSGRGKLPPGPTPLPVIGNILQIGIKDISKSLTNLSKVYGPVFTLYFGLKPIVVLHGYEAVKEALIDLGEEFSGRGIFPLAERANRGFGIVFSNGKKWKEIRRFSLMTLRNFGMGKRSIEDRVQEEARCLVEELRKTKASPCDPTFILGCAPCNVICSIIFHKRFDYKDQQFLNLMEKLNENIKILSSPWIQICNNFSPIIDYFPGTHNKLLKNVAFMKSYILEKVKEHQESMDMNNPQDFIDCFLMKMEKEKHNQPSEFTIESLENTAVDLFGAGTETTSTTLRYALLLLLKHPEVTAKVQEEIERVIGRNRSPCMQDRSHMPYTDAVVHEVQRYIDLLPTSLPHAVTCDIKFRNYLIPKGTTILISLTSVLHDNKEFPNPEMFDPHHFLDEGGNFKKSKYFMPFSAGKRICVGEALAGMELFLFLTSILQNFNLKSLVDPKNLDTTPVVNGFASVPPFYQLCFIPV

Row | SMILES | Rat (%) [1] | CYP2C9 (CYP2C9) | CYP2C19 (CYP2C19) | CYP3A4 (CYP3A4) | CYP1A2 (CYP1A2) | CYP2D6 (CYP2D6) | Mouse (%) [2] | Human (%) [3] | Dog (%) [4] | Cell viability (% @10 μM) (Tau-BiFC cells) | remaining activity at 10 µM (tau protein) | IC50 (tau protein) | Cell viability (Tau-BiFC cells) | remaining activity at 3 µM (tau protein)
1 | Cc1cc(F)cc(C(=O)Nc2ccc(NN=C(C#N)C#N)cn2)c1 [Compound 19, (6-(3-fluoro-5-methylbenzamido)pyridin-3-yl)carbonohydrazonoyl dicyanide] | 51.4% | 14.6 | 73.1 | 76.5 | 55.1 | 73 | 62.3% | 84.8% | 78.8% | 119.1% | 0% | 270 nM |  | 
2 | N#CC(C#N)=NNc1ccc(NC(=O)c2ccc(C(F)(F)F)cc2)nc1 [Compound 27, (6-(4-(trifluoromethyl)benzamido)pyridin-3-yl)carbonohydrazonoyl dicyanide] | 8.8% | 23.7 | 78.3 | >100 | 76.8 | 76 | 5.4% | 86.9% | 3.6% | 122% | 0% | 370 nM |  | 
3 | Cc1cc(NN=C(C#N)C#N)ccc1OCc1nc2ccccc2[nH]1 [Compound 146, (4-((1H-benzo[d]imidazol-2-yl)methoxy)-3-methylphenyl)carbonohydrazonoyl dicyanide] | 31.1% | 47.2 | 88.4 | 82.7 | >100 | >100 | 70.5% | 64.6% |  |  |  | 444 nM | 133% | -35%
4 | N#CC(C#N)=NNc1ccc(Oc2ccccc2)nc1 [Compound 68, (6-phenoxypyridin-3-yl)carbonohydrazonoyl dicyanide] | 63% |  |  |  |  |  | 93.6% | 6.7% | 87.8% | 117% | 0% | 110 nM |  | 
5 | N#CC(C#N)=NNc1ccc(Oc2cccc(F)c2)nc1 [Compound 69, (6-(3-fluorophenoxy)pyridin-3-yl)carbonohydrazonoyl dicyanide] | 75.6% |  |  |  |  |  | 81.6% | 8.4% | 94.8% | 119.4% | 0% | 260 nM |  | 
6 | Cc1cc(NN=C(C#N)C#N)ccc1OCc1cccnc1 [Compound 145, (3-methyl-4-(pyridin-3-ylmethoxy)phenyl)carbonohydrazonoyl dicyanide] | 91.2% | 2.2 | 46.5 | 22 | 5.3 | 39.1 | 93.3% | 93.7% |  |  |  | 126 nM | 95% | -49%
7 | N#CC(C#N)=NNc1ccc(NC(=O)c2cccc(C(F)(F)F)c2)nc1 [Compound 26, (6-(3-(trifluoromethyl)benzamido)pyridin-3-yl)carbonohydrazonoyl dicyanide] | 19.8% |  |  |  |  |  | 7.1% | 72.5% | 29.8% | 109.8% | 0% | 710 nM |  | 
8 | Cc1cc(NN=C(C#N)C#N)ccc1OCc1nc2ccccc2o1 [Compound 156, (4-(benzo[d]oxazol-2-ylmethoxy)-3-methylphenyl)carbonohydrazonoyl dicyanide] | 55.5% | 54 | 83.7 | 92.6 | 95.9 | 96 | 41.3% | 49.3% |  |  |  | 50 nM | 124% | -29%
